From publication PMC8016998, “Identification of potential therapeutic antimicrobial peptides against Acinetobacter baumannii in a mouse model of pneumonia” (Scientific Reports, 2021)
Values belong to the substance of their own block, whether it stands above or below them. No end group written: not given here.

How the values were obtained:
[1] = system: MDRAB clinical strain AF93; format: cell-based, Acinetobacter baumannii; settings: 24 h
Description: (§1) MBC were determined by extending the MIC procedure in sterilized 96-well polypropylene microtiter plates according to the broth microdilution guidelines of the Clinical and Laboratory Standards Institute with some modification[47]. […] In addition, 10 µL was drawn from each well with no visible turbidity onto LB agar plates and incubated for 24 h at 37 °C. The lowest concentration showing no visible growth on agar subculture was used as the MBC value. All experiments were performed in triplicate.

[2] = system: MDRAB clinical strain AE5; format: cell-based, Acinetobacter baumannii; settings: 24 h
[3] = system: MDRAB clinical strain J49; format: cell-based, Acinetobacter baumannii; settings: 24 h
Description: as §1

[4] = system: MDRAB clinical strain O59; format: cell-based, Acinetobacter baumannii; settings: 24 h
[5] = system: MDRAB clinical strain AE6; format: cell-based, Acinetobacter baumannii; settings: 24 h
Description: as §1

[6] = system: MDRAB clinical strain L87; format: cell-based, Acinetobacter baumannii; settings: 24 h
[7] = system: MDRAB clinical strain AS40; format: cell-based, Acinetobacter baumannii; settings: 24 h
Description: as §1

[8] = system: MDRAB clinical strain AL87; format: cell-based, Acinetobacter baumannii; settings: 24 h
Description: as §1

[9] = system: MDRAB clinical strain D29; format: cell-based, Acinetobacter baumannii; settings: 24 h
Description: as §1

[10] = system: MDRAB clinical strain AK29; format: cell-based, Acinetobacter baumannii; settings: 24 h
Description: as §1

[11] = system: MDRAB clinical strain W11; format: cell-based, Acinetobacter baumannii; settings: 24 h
Description: as §1

[12] = system: MDRAB clinical strain AO80; format: cell-based, Acinetobacter baumannii; settings: 24 h
Description: as §1

[13] = system: MDRAB clinical strain Y92; format: cell-based, Acinetobacter baumannii; settings: 24 h
Description: as §1

[14] = system: Acinetobacter baumannii 19,606; format: cell-based; settings: 19,606, 24 h
[15] = system: MDRAB clinical strain U95; format: cell-based, Acinetobacter baumannii; settings: 24 h
[16] = system: MDRAB clinical strain AG51; format: cell-based, Acinetobacter baumannii; settings: 24 h
Description: as §1

[17] = system: MDRAB clinical strains; format: cell-based, Acinetobacter baumannii; settings: 24 h
[18] = system: MDRAB clinical strain U80; format: cell-based, Acinetobacter baumannii; settings: 24 h
[19] = system: MDRAB clinical strain AF11; format: cell-based, Acinetobacter baumannii; settings: 24 h
[20] = system: MDRAB clinical strain K2; format: cell-based, Acinetobacter baumannii; settings: 24 h
[21] = system: MDRAB clinical strain AF12; format: cell-based, Acinetobacter baumannii; settings: 24 h
[22] = system: Acinetobacter baumannii 17,978; format: cell-based; settings: 17,978, 24 h;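 further: CLSI broth microdilution in 96-well polypropylene plates, MBC taken as lowest concentration giving no growth when clear wells were subcultured on LB agar for 24 h at 37 °C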
[23] = system: MDRAB clinical strain AK61; format: cell-based, Acinetobacter baumannii; settings: 24 h
Description: as §1

[24] = system: MDRAB clinical strain AN10; format: cell-based, Acinetobacter baumannii; settings: 24 h
Description: as §1

[25] = system: MDRAB clinical strain AZ93; format: cell-based, Acinetobacter baumannii; settings: 24 h

- MIC [1]: 8 µg/mL
- MIC [2]: 8 µg/mL
- MIC [3]: 16 µg/mL
- MIC [4]: 16 µg/mL
- MIC [5]: 8 µg/mL
- MIC [6]: 16 µg/mL
- MIC [7]: 16 µg/mL
- MIC [8]: 8 µg/mL
- MIC [9]: 16 µg/mL
- MIC [10]: 8 µg/mL
- MIC [11]: 16 µg/mL
- MIC [12]: 16 µg/mL
- MIC [13]: 8 µg/mL
- MIC [14]: 16 µg/mL
- MIC [15]: 16 µg/mL
- MIC [16]: 8 µg/mL
- MIC [17]: 8 to 16 µg/mL
- MIC [18]: 16 µg/mL
- MIC [19]: 8 µg/mL
- MIC [20]: 8 µg/mL
- MIC [21]: 8 µg/mL
- MIC [22]: 16 µg/mL
- MIC [23]: 16 µg/mL
- MIC [24]: 8 µg/mL
- MIC [25]: 8 µg/mL
Substance: GIKIAKKAITIAKKIAKIYW [GW-Q6]
- MBC [1]: 16 µg/mL
- MBC [2]: 8 µg/mL
- MBC [3]: 16 µg/mL
- MBC [4]: 32 µg/mL
- MBC [5]: 8 µg/mL
- MBC [6]: 16 µg/mL
- MBC [7]: 16 µg/mL
- MBC [8]: 8 µg/mL
- MBC [9]: 32 µg/mL
- MBC [10]: 8 µg/mL
- MBC [11]: 16 µg/mL
- MBC [12]: 16 µg/mL
- MBC [13]: 8 µg/mL
- MBC [14]: 16 µg/mL
- MBC [15]: 32 µg/mL
- MBC [16]: 8 µg/mL
- MBC [17]: 8 to 32 µg/mL
- MBC [18]: 16 µg/mL
- MBC [19]: 8 µg/mL
- MBC [20]: 8 µg/mL
- MBC [21]: 8 µg/mL
- MBC [22]: 16 µg/mL
- MBC [23]: 16 µg/mL
- MBC [24]: 8 µg/mL
- MBC [25]: 8 µg/mL

- MIC [1]: 8 µg/mL
- MIC [2]: 8 µg/mL
- MIC [3]: 8 µg/mL
- MIC [4]: 16 µg/mL
- MIC [5]: 16 µg/mL
- MIC [6]: 16 µg/mL
- MIC [7]: 8 µg/mL
- MIC [8]: 8 µg/mL
- MIC [9]: 16 µg/mL
- MIC [10]: 4 µg/mL
- MIC [11]: 16 µg/mL
- MIC [12]: 8 µg/mL
- MIC [13]: 8 µg/mL
- MIC [14]: 8 µg/mL
- MIC [15]: 16 µg/mL
- MIC [16]: 4 µg/mL
- MIC [17]: 4 to 16 µg/mL
- MIC [18]: 8 µg/mL
- MIC [19]: 8 µg/mL
- MIC [20]: 16 µg/mL
- MIC [21]: 8 µg/mL
- MIC [22]: 16 µg/mL
- MIC [23]: 8 µg/mL
- MIC [24]: 4 µg/mL
- MIC [25]: 8 µg/mL
Substance: GRFKRFRKKFKKLFKKLSPVIPLLHLG [BMAP-27]
- MBC [1]: 8 µg/mL
- MBC [2]: 16 µg/mL
- MBC [3]: 8 µg/mL
- MBC [4]: 16 µg/mL
- MBC [5]: 16 µg/mL
- MBC [6]: 16 µg/mL
- MBC [7]: 8 µg/mL
- MBC [8]: 8 µg/mL
- MBC [9]: 16 µg/mL
- MBC [10]: 8 µg/mL
- MBC [11]: 16 µg/mL
- MBC [12]: 8 µg/mL
- MBC [13]: 8 µg/mL
- MBC [14]: 8 µg/mL
- MBC [15]: 16 µg/mL
- MBC [16]: 8 µg/mL
- MBC [18]: 16 µg/mL
- MBC [19]: 16 µg/mL
- MBC [20]: 32 µg/mL
- MBC [21]: 8 µg/mL
- MBC [22]: 16 µg/mL
- MBC [23]: 8 µg/mL
- MBC [24]: 4 µg/mL
- MBC [25]: 8 µg/mL

- MIC [1]: 8 µg/mL
- MIC [2]: 16 µg/mL
- MIC [3]: 16 µg/mL
- MIC [4]: 16 µg/mL
- MIC [5]: 16 µg/mL
- MIC [6]: 32 µg/mL
- MIC [7]: 8 µg/mL
- MIC [8]: 8 µg/mL
- MIC [9]: 16 µg/mL
- MIC [10]: 8 µg/mL
- MIC [11]: 16 µg/mL
- MIC [12]: 8 µg/mL
- MIC [13]: 8 µg/mL
- MIC [14]: 16 µg/mL
- MIC [15]: 32 µg/mL
- MIC [16]: 8 µg/mL
- MIC [17]: 8 to 32 µg/mL
- MIC [18]: 16 µg/mL
- MIC [19]: 8 µg/mL
- MIC [20]: 16 µg/mL
- MIC [21]: 8 µg/mL
- MIC [22]: 16 µg/mL
- MIC [23]: 16 µg/mL
- MIC [24]: 16 µg/mL
- MIC [25]: 8 µg/mL
Substance: GWGSFFKKAAHVGKHVGKAALTHYL-NH2 [Pleurocidin]
- MBC [1]: 16 µg/mL
- MBC [2]: 16 µg/mL
- MBC [3]: 16 µg/mL
- MBC [4]: 16 µg/mL
- MBC [5]: 16 µg/mL
- MBC [6]: 32 µg/mL
- MBC [7]: 8 µg/mL
- MBC [8]: 8 µg/mL
- MBC [9]: 32 µg/mL
- MBC [10]: 16 µg/mL
- MBC [11]: 16 µg/mL
- MBC [12]: 8 µg/mL
- MBC [13]: 8 µg/mL
- MBC [14]: 16 µg/mL
- MBC [15]: 32 µg/mL
- MBC [16]: 8 µg/mL
- MBC [17]: 8 to 32 µg/mL
- MBC [18]: 16 µg/mL
- MBC [19]: 16 µg/mL
- MBC [20]: 32 µg/mL
- MBC [21]: 8 µg/mL
- MBC [22]: 16 µg/mL
- MBC [23]: 16 µg/mL
- MBC [24]: 16 µg/mL
- MBC [25]: 8 µg/mL

- MIC [1]: 16 µg/mL
- MIC [2]: 16 µg/mL
- MIC [3]: 16 µg/mL
- MIC [4]: 32 µg/mL
- MIC [5]: 16 µg/mL
- MIC [6]: 32 µg/mL
- MIC [7]: 32 µg/mL
- MIC [8]: 8 µg/mL
- MIC [9]: 16 µg/mL
- MIC [10]: 8 µg/mL
- MIC [11]: 16 µg/mL
- MIC [12]: 32 µg/mL
- MIC [13]: 16 µg/mL
- MIC [14]: 16 µg/mL
- MIC [15]: 32 µg/mL
- MIC [16]: 8 µg/mL
- MIC [17]: 8 to 32 µg/mL
- MIC [18]: 32 µg/mL
- MIC [19]: 16 µg/mL
- MIC [20]: 16 µg/mL
- MIC [21]: 8 µg/mL
- MIC [22]: 16 µg/mL
- MIC [23]: 32 µg/mL
- MIC [24]: 8 µg/mL
- MIC [25]: 32 µg/mL
Substance: GWKKWFNRAKKVGKTVGGLAVDHYL-NH2 [NRC12]
- MBC [1]: 16 µg/mL
- MBC [2]: 16 µg/mL
- MBC [3]: 16 µg/mL
- MBC [4]: 32 µg/mL
- MBC [5]: 16 µg/mL
- MBC [6]: 32 µg/mL
- MBC [7]: 32 µg/mL
- MBC [8]: 8 µg/mL
- MBC [9]: 16 µg/mL
- MBC [10]: 8 µg/mL
- MBC [11]: 16 µg/mL
- MBC [12]: 32 µg/mL
- MBC [13]: 16 µg/mL
- MBC [14]: 16 µg/mL
- MBC [15]: 32 µg/mL
- MBC [16]: 8 µg/mL
- MBC [17]: 8 to 32 µg/mL
- MBC [18]: 32 µg/mL
- MBC [19]: 16 µg/mL
- MBC [20]: 32 µg/mL
- MBC [21]: 16 µg/mL
- MBC [22]: 16 µg/mL
- MBC [23]: 32 µg/mL
- MBC [24]: 8 µg/mL
- MBC [25]: 32 µg/mL
